{
  "source": "patent US20230160890A1",
  "about": "“COMPOSITIONS AND METHODS FOR DIAGNOSING NARCOLEPSY” (The Board of Trustees of the Leland Stanford Junior …, priority 2018, published 2023)",
  "molecules": {"B1": {"name": "Hcrt1-15 peptide (…) (peptide)", "peptide": "MNLPSTKVSWAAVTL"}, "B2": {"name": "TCR26 (TCR)", "alpha TRAV9-2 TRAJ5 CDR3": "CALSGKDTGRRALTF", "beta TRBV25-1 TRBJ2-1 CDR3": "CASSASPNEQFF"}, "B3": {"name": "T1N-irrelevant TCR isolated from a CD8+ T cell (TCR)", "alpha TRAV25 TRAJ42 CDR3": "CAGTYGGSQGNLIF", "beta TRBV19 TRBJ2-2 CDR3": "CASSLRSTGELFF"}},
  "key": {"[1]": {"test_system": "CD4+ T cells from T1N donors", "test": "In vitro culturing of CD4+ T cells with peptide-loaded T2DQ6 APCs, then tetramer staining", "assay_type": "cell-based, human", "details": "for Frequencies of tetramer+ cells after in vitro stimulation with the corresponding peptide: stained with the tetramer of the corresponding peptide", "from_the_text": "To test for the presence of DQ6-HCRTpeptide tetramer^+/CD4^+ T cells, a peptide-loaded antigen presenting cell (APC) line T2DQ6 (fixed to limit APC proliferation) was co-cultured with T cells for DQ6-restricted antigen stimulation. T2DQ6 was constructed by stable transfection of DQ6 (DQA1*01:02/DQB1*06:02) into T2, a class II deficient TxB hybrid cell^44. T2DQ6 cells were maintained in IMDM, GlutaMAX supplemented media (Thermo Fisher Scientific) with 10% HI FBS, 1% penicillin/streptomycin (P/S) and 1 mg/ml G418 (to maintain selective pressure on DQ6 transfectants). To load antigen, T2DQ6 cells were pulsed with peptides (i.e., EBV486-500, HCRT56-69, HCRT87-100, synthesized by Genscript) at 1 μM final concentration and incubated for 6 hours at 37° C. After peptide loading, 10 million T2DQ6 cells were washed with phosphate buffered saline (PBS) and then fixed by incubating with 0.025% glutaraldehyde in 2 ml PBS at RT for 30 seconds. After the addition of another 2 ml PBS, the cells were incubated for another 10 minutes at RT. Fixed T2DQ6 was washed twice with PBS and once with complete RPMI (RPMI 1640 medium supplemented with 10% HI human AB serum, 2 mM glutamine and 1% PS) before mixing with CD4^+ T cells. Human PBMCs frozen in NUNC tubes were thawed quickly at 37° C. and added slowly to 10 ml warm complete RPMI. PBMCs were pelleted and resuspended in cold buffer for CD4^+ T cell isolation. Cells were isolated from the PBMCs by negative selection, using the CD4^+ cell isolation kit, according to the manufacturer's instructions (Miltenyi Biotec). Isolated CD4^+ T cells were resuspended at 1×10^6 cells/ml in warm complete RPMI and rested for at least 1 hour before mixing with fixed T2DQ6 cells that were also resuspended at 1×10^6 cells/ml in warm complete RPMI. A mixture of 1:1 volume ratio of CD4^+ T cells and T2DQ6 cells in the presence of recombinant human IL-7 at final concentration of 2.5 ng/ml was aliquoted onto a 96-well plate and incubated at 37° C. for 6 days. On day 6 and day 9, 100 μl of the spent medium was removed from each well and replaced with fresh complete RPMI containing recombinant IL-7 at 2.5 ng/ml and IL-2 at 40 U/ml final concentrations. On day 12, a second round of antigen stimulation was performed similarly, using fixed T2DQ6 cells loaded with the corresponding peptides.\nSufficient cells from the co-culture were collected, washed with complete RPMI, and resuspended in 5 ml complete RPMI at RT prior to Ficoll gradient separation. Cells above the Ficoll media were washed and resuspended at 10×10^6 cells/ml in complete RPMI for blocking. […]"}, "[2]": {"biological_target": "T1, soluble DQ6 (DQA1*01:02/DQB1*06:02) (Homo sapiens, UniProt P01909+P01920, A157G/A45G/C70R/E118A/E183D/E77G/F83G/G63E/H151Q/H199R/H252R/H253Q/I129T/I235V/I88M/INS77G/K197Q/L117V/L119F/L178F/L71W/L74F/L85Q/L91A/L98M/N214S/P87R/Q116E/Q76K/R102G/R240Q/R75S/R78G/S102Y/S185I/S41F/S97I/T121G/T122I/T172A/T86R/V229M/V68A/V73E/Y34C/Y41F/Y58L)", "T1 construct": "3C protease cleavage site (C); leucine zipper-Fos (C); cut by thrombin before the assay (N, cleaved yes); leucine zipper-Jun (C); made in house; host or cells: Drosophila Schneider 2 (S2) insect cells", "test": "Peptide competition assay (inhibition of DQ6 binding of biotinylated EBV486-500)", "from_the_text": "The ability of a peptide to inhibit the interaction of DQ6 and a reference binding peptide at steady state was used to estimate the relative DQ6 binding capacity of test peptides. We used biotinylated EBV486-500 (aa: biotin-[…] (SEQ ID NO:45), synthesized by Genscript), a DQ6-binding peptide (epitope underlined) derived from Epstein-Barr virus nuclear antigen^25, as our reference peptide. Non-biotinylated test peptides included thirty 15-mer overlapping peptides derived from prepo-HCRT (Table 1, by Genscript) and the positive control peptide EBV486-500. The DQ6-CLIP87-101 construct contains a thrombin cleavage site in between CLIP87-101 and […]. To cleave the covalent linker and enable replacement of CLIP87-101 by high affinity DQ6 binders, soluble DQ6-CLIP87-101 at a concentration of 3 μM was incubated with 0.002 U/μl thrombin enzyme (Novagen, EMD Millipore) for 2 h at room temperature (RT) prior to peptide loading experiments. To test DQ6 binding capacity, a non-biotinylated peptide at 40 μM was mixed with 1 μM biotinylated EBV486-500 and incubated with 25 nM thrombin-cleaved DQ6-CLIP87-101. 100 nM soluble DM was added as a catalyst to increase the peptide exchange efficiency^44. […] Time resolved fluorescence representing DQ6-associated biotinylated EBV486-500 captured by SPV-L3 in each well was then quantified using the DELFIA Eu-N1 Streptavidin System (PerkinElmer)."}, "[3]": {"test_system": "TCR27 transfectants of J76-NFATRE-luc cells", "test": "T cell activation assay using a luciferase reporter, TCR27 transfectants with K562-DQ6 APCs", "assay_type": "cell-based, human", "design": "dose or concentration left out as unconfirmed", "details": "DQ6-restricted presentation by K562-DQ6, 1 day", "from_the_text": "To encode the entire α/β chains of a candidate TCR, the nucleotide sequences for CDR3a and CDR3P were incorporated in frame with the corresponding V(D)J genes (IMGT/V-QUEST^37). TCRα/β genes were then synthesized and cloned into a plasmid pEF1α-TCRA_2A_TCRB_IRES-AcGFP1 (by GenScript). Each reconstructed plasmid uses a mammalian promoter, EF1a to direct co-expression of α and β chains of one candidate TCR. TCRA and TCRB are separated by the 2A self-cleaving peptide sequence. For selection purposes, the plasmid also encodes the green fluorescence protein (GFP) and neomycin resistance gene, with expression driven by separate promoters. TCR-encoding plasmids were then transfected into the TCRα/β deficient Jurkat cell line (J76-NFATRE-luc)^20 by nucleofection following the Amaxa Optimized protocol (Lonza). Transfectants were selected by G418 at a concentration of 1 mg/ml and recovered after 3-4 weeks of culturing in the RPMI medium supplemented with 10% HI FBS, 2 mM glutamine, and 1% PS. To avoid the heterogeneity in TCR expression observed in a polyclonal cell line, TCRαβ^+/GFP^+/CD3^+ cell transfectants were individually sorted by single cell FACS, to expand clonal cell lines originating from single cell transfectants. These clonal lines were then co-stained with PE anti-TCRα/β Abs (BD Biosciences) and APC DQ6-HCRT tetramers to confirm the expression of TCRs and validate their binding to tetramers using flow cytometric analysis.\nThe TCR transfectants of J76-NFATRE-luc cells expresses the NFAT-RE (response element)-luciferase reporter gene allowing the conversion of T cell activation signaling to luciferase activity^20. […] The co-culture was incubated with various stimuli at 37° C. for 1 day before quantification of the luciferase activity. […] The mixture was then transferred to a flat-bottom white 96-well plate (Costar) for a measurement of chemiluminescence using a plate reader."}, "[4]": {"biological_target": "soluble HLA-DQ6 (DQA1*01:02/DQB1*06:02), thrombin-cleaved DQ6-CLIP87-101 (human)", "test": "competition: 40 µM test peptide against 1 µM biotinylated EBV486-500 on 25 nM soluble DQ6 with 100 nM HLA-DM, SPV-L3 capture, DELFIA"}, "[5]": {"biological_target": "T2, prepro-HCRT (hypocretin precursor) peptide on HLA-DQA1*01:02 / HLA-DQB1*06:02 (human)", "T2 peptide": "ALLSSGAAAQPLP", "test": "activation reporter or marker"}, "[6]": {"biological_target": "T3, prepro-HCRT (hypocretin precursor) peptide on HLA-DQA1*01:02 / HLA-DQB1*06:02 (human)", "T3 peptide": "MNLPSTKVSWAAV", "test": "multimer staining"}, "[7]": {"biological_target": "T4, prepro-HCRT (hypocretin precursor; C-terminus of HCRT2) peptide on HLA-DQA1*01:02 / HLA-DQB1*06:02 (human)", "T4 peptide": "SGNHAAGILTMGRR", "test": "multimer staining"}},
  "note": "“Also recorded” adds a separate entry of the source. Ends that are not written are not given here. * marks the point of attachment. Biotin = O=C1N[C@H]2[C@H](CS[C@H]2CCCCC(=O)*)N1",
  "data": [
    {"molecule": "AGNHAAGILTLGKR [HCRT56-69]", "values": [
      {"measurement": "Frequencies of tetramer+ cells after in vitro stimulation with the corresponding peptide", "setting": "[1]", "result": "significantly increased"}
    ]},
    {"molecule": "ALLSSGAAAQPLPDC [HCRT25-39]", "values": [
      {"measurement": "DQ6 binder class", "setting": "[2]; competition assay, FIG. 2A", "result": "strong binder"}
    ]},
    {"molecule": "EBV486-500: a DQ6-binding peptide derived from Epstein-Barr virus nuclear antigen, reference and positive control peptide (Biotin-GGGRALLARSHVERTTDE) [reference compound]", "values": [
      {"measurement": "Frequencies of tetramer+ cells after in vitro stimulation with the corresponding peptide", "setting": "[1]", "result": "time dependent enrichment"}
    ]},
    {"molecule": "MNLPSTKVSWAAV [HCRT1-13]", "values": [
      {"measurement": "TCR-mediated signaling (luciferase activity)", "setting": "[3]", "result": "failure of TCR27-mediated signaling"}
    ]},
    {"molecule": "MNLPSTKVSWAAVTL [HCRT1-15]", "values": [
      {"measurement": "% Competition (inhibition of the indicator EBV peptide binding to DQ6)", "setting": "[2]; test peptide 40 μM, 1 μM biotinylated EBV486-500, 25 nM DQ6, 100 nM DM, pH 4.6, 37° C., 20 hours", "result": "> 75", "unit": "%"}
    ]},
    {"molecule": "SGNHAAGILTM-NH2 [HCRT87-97-NH2]", "values": [
      {"measurement": "TCR-mediated signaling (luciferase activity)", "setting": "[3]", "result": "significant signaling response; also recorded: triggered stronger signaling"}
    ]},
    {"molecule": "SGNHAAGILTMGRR [HCRT87-100]", "values": [
      {"measurement": "TCR-mediated signaling (luciferase activity)", "setting": "[3]", "result": "able to trigger TCR-mediated activation signaling"},
      {"measurement": "Enrichment of DQ6-HCRT56-69 tetramer+ cells in peptide-stimulated culture", "setting": "[1]; stained with the DQ6-HCRT56-69 tetramer, some T1N donors", "result": "enrichment"},
      {"measurement": "Frequencies of tetramer+ cells after in vitro stimulation with the corresponding peptide", "setting": "[1]", "result": "significantly increased"}
    ]},
    {"molecule": "B1", "values": [
      {"measurement": "% competition", "setting": "[4]", "result": "> 75", "unit": "%"}
    ]},
    {"molecule": "B2", "values": [
      {"measurement": "binding result", "setting": "[5]", "result": "no recognition"}
    ]},
    {"molecule": "B3", "values": [
      {"measurement": "binding result", "setting": "[6]", "result": "no recognition"},
      {"measurement": "binding result", "setting": "[7]", "result": "no recognition"},
      {"measurement": "binding result", "setting": "[5]", "result": "no recognition"}
    ]}
  ]
}
